The assay concerns the target T1, Angiotensin-converting enzyme (Oryctolagus cuniculus) (UniProt P12822).
T1 sequence (whole entry): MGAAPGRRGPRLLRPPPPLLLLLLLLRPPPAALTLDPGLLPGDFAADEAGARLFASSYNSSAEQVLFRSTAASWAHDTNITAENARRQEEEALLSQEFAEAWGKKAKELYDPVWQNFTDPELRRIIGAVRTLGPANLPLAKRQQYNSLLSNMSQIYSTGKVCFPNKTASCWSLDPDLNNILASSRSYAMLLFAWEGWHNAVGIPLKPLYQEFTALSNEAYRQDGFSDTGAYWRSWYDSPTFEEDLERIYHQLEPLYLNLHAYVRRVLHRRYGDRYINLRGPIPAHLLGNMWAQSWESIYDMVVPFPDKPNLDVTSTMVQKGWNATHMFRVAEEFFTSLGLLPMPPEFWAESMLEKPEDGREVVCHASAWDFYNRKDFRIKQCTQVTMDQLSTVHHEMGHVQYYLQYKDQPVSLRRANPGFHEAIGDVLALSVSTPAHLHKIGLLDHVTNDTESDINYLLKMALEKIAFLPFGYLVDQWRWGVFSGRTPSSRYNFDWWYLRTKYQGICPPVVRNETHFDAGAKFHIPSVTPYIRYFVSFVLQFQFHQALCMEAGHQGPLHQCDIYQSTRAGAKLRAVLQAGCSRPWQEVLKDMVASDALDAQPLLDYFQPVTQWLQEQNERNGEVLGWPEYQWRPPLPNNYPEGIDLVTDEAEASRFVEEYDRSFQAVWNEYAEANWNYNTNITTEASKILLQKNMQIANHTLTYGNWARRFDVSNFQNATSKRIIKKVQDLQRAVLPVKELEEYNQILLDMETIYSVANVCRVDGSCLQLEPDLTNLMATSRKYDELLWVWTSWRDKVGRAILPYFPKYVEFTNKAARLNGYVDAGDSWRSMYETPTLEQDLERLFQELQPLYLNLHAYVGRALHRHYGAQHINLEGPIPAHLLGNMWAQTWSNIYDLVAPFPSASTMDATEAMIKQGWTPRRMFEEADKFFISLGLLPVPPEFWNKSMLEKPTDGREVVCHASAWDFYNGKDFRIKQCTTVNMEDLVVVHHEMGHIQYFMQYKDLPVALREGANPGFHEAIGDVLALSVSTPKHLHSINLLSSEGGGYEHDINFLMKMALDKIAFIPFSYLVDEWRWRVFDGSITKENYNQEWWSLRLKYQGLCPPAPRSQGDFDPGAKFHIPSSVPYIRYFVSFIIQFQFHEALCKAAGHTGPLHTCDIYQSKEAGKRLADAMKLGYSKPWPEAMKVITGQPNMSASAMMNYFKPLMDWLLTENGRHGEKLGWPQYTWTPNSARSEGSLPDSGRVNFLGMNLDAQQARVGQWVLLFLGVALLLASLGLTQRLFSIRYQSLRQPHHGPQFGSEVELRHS
The experiment in a line: Inhibition of rabbit lung ACE activity relative to control. More on the design: concentration or dose not given beside the values. Particulars: concentration not given here.
`NCCC[C@H](NC(=O)c1ccsc1)C(=O)N1CCC[C@H]1C(=O)O` yielded an inhibition of 23.7%. Under `NCCC[C@H](NC(=O)CCc1ccsc1)C(=O)N1CCC[C@H]1C(=O)O` stands 72.7%; under `NCCC[C@H](NC(=O)CCCc1ccsc1)C(=O)N1CCC[C@H]1C(=O)O`, 37.2%; under `NCCC[C@H](NC(=O)CCCc1c[nH]c2ccccc12)C(=O)N1CCC[C@H]1C(=O)O`, 33.8%. Under `NCCC[C@H](NC(=O)Cc1c[nH]c2ccccc12)C(=O)N1CCC[C@H]1C(=O)O` stands 38.5%; under `NCCC[C@H](NC(=O)CCc1c[nH]c2ccccc12)C(=O)N1CCC[C@H]1C(=O)O`, 59.7%; under `NCCC[C@H](NC(=O)c1c[nH]c2ccccc12)C(=O)N1CCC[C@H]1C(=O)O`, 27.7%. `NCCC[C@H](NC(=O)Cc1ccsc1)C(=O)N1CCC[C@H]1C(=O)O` registered an inhibition of 35.6%.

As usually defined, the inhibition is how much of the control response was suppressed.

The values above are taken from ChEMBL document CHEMBL1152371, “Effect of varying chain length between P(1) and P(1') position of tripeptidomimics on activity of angiotensin-converting enzyme inhibitors” (Bioorg Med Chem Lett, 2009).
